# Reference: paper PMC5421464, “Characterization of the single-subunit oligosaccharyltransferase STT3A from Trypanosoma brucei using synthetic peptides and lipid-linked oligosaccharide analogs” (Glycobiology, 2017)
# Marks after values point to notes of the source that are not given here. Ends that are not written are not given here. * marks the point of attachment. 5FAM = O=C1OC2(c3ccc(O)cc3Oc3cc(O)ccc32)c2ccc(C(=O)*)cc21
# Columns and labels:
# Type in all cases: biochemical
# TbSTT3A [1] = biological target: T1, TbSTT3A (Trypanosoma brucei, UniProt Q57W34); test: In vitro glycosylation assay, turnover rate of acceptor peptides (Tricine SDS-PAGE fluorescence)
# T1 sequence (Q57W34 1-801): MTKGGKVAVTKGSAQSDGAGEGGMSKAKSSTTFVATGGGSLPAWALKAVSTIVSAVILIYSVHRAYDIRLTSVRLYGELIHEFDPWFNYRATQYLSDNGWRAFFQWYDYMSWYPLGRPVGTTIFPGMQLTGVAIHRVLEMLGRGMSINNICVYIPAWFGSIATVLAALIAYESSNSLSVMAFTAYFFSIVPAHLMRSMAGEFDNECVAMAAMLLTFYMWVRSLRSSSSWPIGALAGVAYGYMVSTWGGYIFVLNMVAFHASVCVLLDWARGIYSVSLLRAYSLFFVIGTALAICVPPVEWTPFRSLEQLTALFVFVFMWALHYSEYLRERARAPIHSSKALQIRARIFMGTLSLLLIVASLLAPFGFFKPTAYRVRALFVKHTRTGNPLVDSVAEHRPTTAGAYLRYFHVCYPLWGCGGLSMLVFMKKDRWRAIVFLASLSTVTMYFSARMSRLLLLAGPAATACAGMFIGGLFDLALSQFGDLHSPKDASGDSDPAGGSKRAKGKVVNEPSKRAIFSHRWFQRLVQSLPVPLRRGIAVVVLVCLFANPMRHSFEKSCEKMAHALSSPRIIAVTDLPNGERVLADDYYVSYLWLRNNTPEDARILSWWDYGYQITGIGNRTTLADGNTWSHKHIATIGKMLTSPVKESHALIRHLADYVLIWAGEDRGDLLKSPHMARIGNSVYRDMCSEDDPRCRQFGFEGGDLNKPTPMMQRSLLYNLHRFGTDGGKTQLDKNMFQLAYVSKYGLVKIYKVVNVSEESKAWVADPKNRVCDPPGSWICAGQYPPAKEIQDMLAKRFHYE
# Method: (§1) Fig. 2. Optimization of the acceptor peptide sequence. (A) Synthetic acceptor peptides are shown in single letter code. The acceptor asparagine (zero position of the sequon) is indicated in red. Glycosylation experiments were performed and the fluorescently labeled substrate (G0) and product (G1) were quantified following Tricine SDS-PAGE analysis. (B) Turnover rates after fitting the time points by linear regression using PRISM. Error bars indicate standard error of the fitting. (C) Kinetic analysis of substrate peptides: glycosylation experiments were performed with 20 nM purified TbSTT3A, 50 µM farnesyl-PP-chitobiose, 10 mM MnCl2, 150 mM NaCl, 20 mM Hepes pH 7.5, 0.035% DDM, 0.007% CHS and different concentrations of peptides varying from 2 to 60 µM. Data points reflect the mean of three separate measurements. Error bars indicate standard deviations. Data were fitted by nonlinear regression according to the Michaelis–Menten formula using PRISM. This figure is available in black and white in print and in color at Glycobiology online.
# Reaction mixtures contained 20 nM purified TbSTT3A protein, 50µM farnesyl-PP-GlcNAc or farnesyl-PP-chitobiose, 10 mM MnCl2, 150 mM NaCl, 20 mM Hepes pH 7.5, 0.035% DDM, 0.007% CHS and 20 µM of the peptide. Reactions were incubated at 30°C. Samples were taken at different time points and reactions were stopped by the addition of 4X SDS Laemmli buffer. Samples were diluted 200-fold prior to analysis by Tricine SDS-PAGE consisting of a 16% resolving gel with 6 M urea, a 10% spacer gel and a 4% stacking gel ([Schägger 2006]). Fluorescent bands for peptide and glycopeptide were visualized by using a Typhoon Trio Plus imager (GE Healthcare) with excitation set at 488 nm and using a 526 nm SP emission filter. The amount of formed glycopeptide was determined from band intensities of fluorescence gel scans (ImageJ) ([Gerber et al. 2013]). Turnover rate determination was performed by fitting of the data to linear regression using PRISM software.
# Supplementary Figure 2: Glycosylation Assays with farnesyl-PP-GlcNAc. In vitro glycosylation experiments were performed with 20nM purified TbStt3A purified protein, 50µM Farnesyl-PP-GlcNAc or Farnesyl-PP-GlcNac2, 10 mM MnCl2, 150 mM NaCl, 20 mM Hepes pH 7.5, 0.035% DDM, 0.007% CHS and 10 µM of the peptide P1.
# TbSTT3A [2] = biological target: T1, TbSTT3A; test: Michaelis-Menten kinetics of the peptides; details: 20 nM TbSTT3A, 50 µM farnesyl-PP-chitobiose, peptide 2-60 µM, 30°C
# Method: as §1
# For Michaelis–Menten kinetics of the peptides, reaction mixtures containing 20 nM TbSTT3A protein, 50 µM farnesyl-PP-chitobiose, 10 mM MnCl2, 150 mM NaCl, 20 mM Hepes pH 7.5, 0.035% DDM and 0.007% CHS were incubated with varying concentrations (2–60 µM) of peptides P11, P13 and P14. Samples were taken at different time points and the turnover rate of the reactions were determined as before. Data were fitted by nonlinear regression according to the Michaelis–Menten formula using PRISM software.
# TbSTT3A [3] = biological target: T1, TbSTT3A; test: Michaelis-Menten kinetics of the LLO analogs; details: for kcat (LLO analog): 20 nM TbSTT3A, 10 µM acceptor peptide, varying LLO analog concentration
# Method: Fig. 3. (A) Structure of the LLO analogs synthesized (1a) (S)-Citronellyl-PP-Chitobiose, C10; (1b) farnesyl-PP-chitobiose, C15; (1c) (S)-NerylCitronellyl-PP-chitobiose, C20; (1d) (S)-farnesylCitronellyl-PP-chitobiose, C25. (B) Kinetic analysis of synthetic LLO analogs. Glycosylation experiments were performed with 20 nM purified TbSTT3A, 10 µM […], 10 mM MnCl2, 150 mM NaCl, 20 mM Hepes pH 7.5, 0.035% DDM, 0.007% CHS and different concentrations of synthetic LLO analogs. Data points reflect the mean of 3 separate measurements. Error bars indicate standard deviations. Data were fitted by nonlinear regression according to the Michaelis–Menten formula using PRISM software. This figure is available in black and white in print and in color at Glycobiology online.
# For Michaelis–Menten kinetics of the LLO analogs, reaction mixtures containing 20 nM TbSTT3A protein, 10 µM peptide P11, 10 mM MnCl2, 150 mM NaCl, 20 mM Hepes pH 7.5, 0.035% DDM and 0.007% CHS were incubated with different concentrations of LLO analogs (10–900 µM, for 1a; 2–60 µM, for 1b; 1–50 µM, for 1c and 1–20 µM, for 1d). Samples were taken at different time points and turnover rates of the reactions were determined as before. Data were fitted by nonlinear regression according to the Michaelis–Menten formula using PRISM software.
# TbSTT3A [4] = biological target: T1, TbSTT3A; test: Inhibition analysis with LLO competitive inhibitors; details: 20 nM TbSTT3A, 10 µM peptide P11, inhibitor 1-2500 µM preincubated 5 min, 15 µM farnesyl-PP-chitobiose 1b
# Method: Fig. 5. (A) Structure of the LLO inhibitors synthesized (34b) farnesyl-PP-C-chitobiose, C15; (34d) (S)-farnesylCitronellyl-PP-C-chitobiose, C25. (B) Kinetic analysis of synthetic LLO inhibitors. Glycosylation experiments were performed with 20 nM TbSTT3A protein, 10 µM peptide P11, 10 mM MnCl2, 150 mM NaCl, 20 mM Hepes pH 7.5, 0.035% DDM and 0.007% CHS. Samples were incubated with LLO competitive inhibitors (1–2500 µM) for 5 min before adding 15 µM of farnesyl-PP-chitobiose, 1b. Data points reflect the mean of three separate measurements. Error bars indicate standard deviations. Data were fitted by nonlinear regression using PRISM software. This figure is available in black and white in print and in color at Glycobiology online.
# For inhibition analysis, reaction mixtures containing 20 nM TbSTT3A protein, 10 µM peptide P11, 10 mM MnCl2, 150 mM NaCl, 20 mM Hepes pH 7.5, 0.035% DDM and 0.007% CHS were incubated with different concentrations of LLO competitive inhibitors (1–2500 µM) for 5 min at 30°C. Reactions were started with addition of 15 µM of farnesyl-PP-chitobiose, 1b. Samples were taken at different time points and turnover rates of the reactions were determined as before. Data were fitted to nonlinear regression and IC50 was determined using PRISM software.
molecule,measurement,setting,value
"5CF-GSDANYTY (5FAM-GSDANYTY) [P11, 5-carboxyfluorescein labeled acceptor peptide]",Glycosylation of acceptor peptide (result in words),TbSTT3A [1]; farnesyl-PP-chitobiose 1b donor,highest turnover rate
same,kcat (substrate peptide),TbSTT3A [2],37 ± 5^a pep/min
"5CF-GSDANYTYTQ (5FAM-GSDANYTYTQ) [P14, 5-carboxyfluorescein labeled acceptor peptide, P11 elongated at the C-terminus]",Increase in glycosylation turnover,TbSTT3A [1]; from the initial DANYTK to GSDANYTYTQ,about 3 fold
same,kcat (substrate peptide),TbSTT3A [2],28 ± 1 pep/min
same,Km,TbSTT3A [2]; read-out: KM (substrate peptide),28 ± 3 µM
"CC(=O)N[C@H]1[C@@H](OP(=O)(O)OP(=O)(O)OCC[C@@H](C)CCC=C(C)C)O[C@H](CO)[C@@H](O[C@@H]2O[C@H](CO)[C@@H](O)[C@H](O)[C@H]2NC(C)=O)[C@@H]1O [1a, P1-2-acetamido-O-(2-acetamido-2-deoxy-β-D-glucopyranosyl)-(1-4)-2-deoxy-α-D-glucopyranosyl P2-(S)-3,7-dimethyloct-6-en-1-yl diphosphate]",kcat (LLO analog),TbSTT3A [3],9.1 ± 0.5 pep/min
"CC(=O)N[C@H]1[C@@H](OP(=O)(O)OP(=O)(O)OC/C=C(\C)CC/C=C(\C)CCC=C(C)C)O[C@H](CO)[C@@H](O[C@@H]2O[C@H](CO)[C@@H](O)[C@H](O)[C@H]2NC(C)=O)[C@@H]1O [1b, P1-2-acetamido-O-(2-acetamido-2-deoxy-β-D-glucopyranosyl)-(1-4)-2-deoxy-α-D-glucopyranosyl P2-(2E,6E)-3,7,11-Trimethyldodeca-2,6,10-trien-1-yl diphosphate]",kcat (LLO analog),TbSTT3A [3],12 ± 1 pep/min
same,Apparent affinity lower compared to 1d,"TbSTT3A [3]; from KM values, Table II",2 fold
"CC(=O)NC1C(OC2C(CO)OC(OP(=O)(O)OP(=O)(O)OCCC(C)CCC=C(C)CCC=C(C)CCC=C(C)C)C(NC(C)=O)C2O)OC(CO)C(O)C1O [1c, P1-2-acetamido-O-(2-acetamido-2-deoxy-β-D-glucopyranosyl)-(1-4)-2-deoxy-α-D-glucopyranosyl P2-(3S,6Z,10Z)-3,7,11,15-tetramethylhexadeca-6,10,14-trien-1-yl diphosphate]",kcat (LLO analog),TbSTT3A [3],23 ± 1 pep/min
"CC(=O)N[C@H]1[C@@H](OP(=O)(O)OP(=O)(O)OCC[C@@H](C)CC/C=C(/C)CC/C=C(\C)CC/C=C(\C)CCC=C(C)C)O[C@H](CO)[C@@H](O[C@@H]2O[C@H](CO)[C@@H](O)[C@H](O)[C@H]2NC(C)=O)[C@@H]1O [1d, P1-2-acetamido-O-(2-acetamido-2-deoxy-β-D-glucopyranosyl)-(1-4)-2-deoxy-α-D-glucopyranosyl P2-(S,6Z,10E,14E)-3,7,11,15,19-pentamethylicosa-6,10,14,18-tetraen-1-yl diphosphate]",kcat (LLO analog),TbSTT3A [3],16 ± 1 pep/min
"CC(=O)N[C@@H]1[C@@H](O)[C@H](O[C@@H]2O[C@H](CO)[C@@H](O)[C@H](O)[C@H]2NC(C)=O)[C@@H](CO)O[C@@H]1CP(=O)(O)OP(=O)(O)OC/C=C(\C)CC/C=C(\C)CCC=C(C)C [34b, (((2S,3R,4R,5S,6R)-3-acetamido-5-(((2S,3R,4R,5S,6R)-3-acetamido-4,5-dihydroxy-6-(hydroxymethyl)tetrahydro-2H-pyran-2-yl)oxy)-4-hydroxy-6-(hydroxymethyl)tetrahydro-2H-pyran-2-yl)methyl)phosphonic ((2E,6E)-3,7,11-trimethyldodeca-2,6,10-trien-1-ylphosphoric) anhydride]",IC50,TbSTT3A [4],167 ± 14 µM
"CC(=O)N[C@@H]1[C@@H](O)[C@H](O[C@@H]2O[C@H](CO)[C@@H](O)[C@H](O)[C@H]2NC(C)=O)[C@@H](CO)O[C@@H]1CP(=O)(O)OP(=O)(O)OCC[C@@H](C)CC/C=C(/C)CC/C=C(\C)CC/C=C(\C)CCC=C(C)C [34d, (((2S,3R,4R,5S,6R)-3-acetamido-5-(((2S,3R,4R,5S,6R)-3-acetamido-4,5-dihydroxy-6-(hydroxymethyl)tetrahydro-2H-pyran-2-yl)oxy)-4-hydroxy-6-(hydroxymethyl)tetrahydro-2H-pyran-2-yl)methyl)phosphonic ((S,6Z,10E,14E)-3,7,11,15,19-pentamethylicosa-6,10,14,18-tetraen-1-ylphosphoric) anhydride]",IC50,TbSTT3A [4],26 ± 3 µM
